Test results published in patent US5552267A, “Solution for prolonged organ preservation” (priority 1994, dated 1996).

Columns and labels:
nitric oxide synthase = experiment: cardiac nitric oxide synthase activity (L-arginine to L-citrulline conversion); type: biochemical, rat; conditions: LR with vs without supplement, 12 h
Method: Hearts were either freshly explanted, preserved, or preserved/transplanted (with 10 min. of reperfusion), after which they were excised. The coronary arteries were flushed with physiologic saline, the atria and great vessels excised, and the ventricular cavities rinsed free of residual intracavitary blood. Samples were flash-frozen in liquid nitrogen and stored at -80° C. until the time of assay. Extracts were prepared by homogenizing tissue at 4° C. in the presence of protease inhibitors (aprotinin, epsilon amino caproic acid, PMSF, pepstatin A, and chymostatin), and centrifuging (20,000 rpm×20 min) to remove cellular debris. The extract (20 μg of protein by the method of Lowry^15) was incubated for 60 min. in the presence of CaCl2 (10 μM), FAD (8 μM), dithiothreitol (60 μM)(Sigma), tetrahydrobiopterin (8 μM; B. Schirks, Switzerland), and ^3 H-L-arginine (0.072 μM, 5 μCi;, Amersham, Arlington Heights, Ill.). Thin layer chromatography (TLC) was performed with 5 μl of the reaction mix, using methanol:chloroform:water:ammonium hydroxide (9:2:8:3) as the running solvent. Silica gel TLC plates (Sigma) were stained with ninhydrin (1 g/500 ml ethanol) and the spots corresponding to L-arginine, L-ornithine, and L-citrulline cut out and counted. […] Results are expressed as the mean ±SEM of 3 determinations.

[1] = tested on: cardiac graft vasculature; experiment: perfusion of donor grafts by microspheres, nitric oxide series; type: in vivo, rat; conditions: 12 h preservation in LR
Method: Ten minutes after restoration of blood flow, 0.5 ml of 10 μm diameter microspheres (10^6 /ml) (E-Z Trac, Los Angeles, Calif.) was injected into the donor aortic root. Deposition of microspheres in ventricular tissue was assessed following alkaline hydrolysis, washing, and counting of microspheres as described^8, with results expressed as number of spheres per (40×) field per gram of ventricle. A minimum of ten fields were counted and the mean ±SEM is reported.

heart = experiment: heterotopic rat cardiac transplant, nitric oxide series, graft survival/score; type: in vivo, rat (male Sprague-Dawley); conditions: for graft survival: NTG 0.1 mg/ml where added
Source text: Male Sprague-Dawley rats (350 grams, Camm Research, Wayne, N.J.) were used, and harvest, preservation, and transplantation procedures performed as described^8. Preservation solutions included lactated Ringer's (LR) solution (Baxter, Edison, N.J.), or LR supplemented with nitroglycerin (DuPont, Wilmington, Del.), sodium nitroprusside (Roche Laboratories, Nutley, N.J.), N^G -monomethyl-L-arginine (L-NMMA; Chembiochem, Salt Lake City, Utah), L-arginine (Sigma Chemical Co., St. Louis, Mo.), or 8-bromoguanosine3',5'monophosphate (8-Br-cGMP; Sigma). Components were combined within 4 hrs of donor cardiectomy, and preservation solutions were kept at 4° C. All of these solutions were at the pH of LR (6.6). University of Wisconsin solution (UW) was purchased from Dupont. […] Ten minutes after removal of the cross-clamp, an electrocardiogram was taken (Grass Polygraph, Quincy, Mass.) and the heart was judged by the same blinded investigators throughout based on the presence/absence of regular contractions and a transplant score (0-5, worst-best, respectively) employing the following criteria: contraction (poor=0, average=1, vigorous=2), tissue turgor (hard=0, average=1, soft=2), and color (dusky=0, pink=1).
Graft survival data was analyzed by contingency analysis (chi-square). Transplant scores, microsphere perfusion, myeloperoxidase, NO synthase, and platelet serotonin release data were analyzed using ANOVA for unpaired variables with the Tukey test used to discriminate significant differences between group means. Values are expressed as means ±SEM, with a p<0.05 considered statistically significant.

[2] = tested on: cGMP-regulated phosphodiesterases; conditions: cited from earlier work
[3] = tested on: graft tissue oxidant stress; experiment: thiobarbituric acid reactive substances (TBARs); type: in vivo, rat; conditions: NTG in EC, 6 h
Method: Thirty minutes following ligation of the native right pulmonary artery, or at the time of recipient death, transplanted lungs were removed, rinsed briskly in physiologic saline, and snap frozen in liquid nitrogen until the time of myeloperoxidase or TBARs assay.
The assay was performed by homogenizing tissue in 1.15% KCl (10 ml/gm of tissue). To 0.2 ml of 10% (w/v) tissue homogenate, the following was added; 0.2 mL of 8.1% sodium dodecyl sulfate (SDS; Sigma), 1.5 mL of 20% acetic acid solution (pH 3.5), 1.5 mL of 0.8% aqueous solution of thiobarbituric acid (Sigma), and 0.6 mL of double distilled water. This mixture was heated to 95° C. for 60 minutes followed by rapid cooling to room temperature. An organic extraction was performed by adding 1.0 mL of double distilled water and 5.0 mL of n-butanol:pyridine (15:1, v/v), vortexing, and then centrifuging at 4000 rpm for 10 minutes. The water-immiscible (organic) layer was recovered for measurement of absorbance at 532 nm. Experiments were performed using 1,1,3,3,-tetramethoxypropane as a standard, with the level of lipid peroxides expressed as nmol of malondialdehyde (MDA)/mg protein. Protein content was determined by the method of Lowry et. al^38.

[4] = tested on: platelet accumulation in lung graft; experiment: graft platelet accumulation (111Indium-labelled platelets); type: in vivo, rat; conditions: NTG 0.1 mg/mL in EC, 6 h
Method: Graft platelet accumulation was determined using ^111 Indium-labelled platelets, prepared as described^39. Blood (5.0 mL) was taken from a gender/strain matched donor rat and heparinized (2500 units). Platelets were isolated by differential centrifugation, first at 300 g for 5 minutes to obtain platelet-rich plasma, which was then washed 3 times at 2,000 g for 15 minutes in 10 ml of acid-citrate-dextrose-anticoagulant (ACD-A; citric acid 38 mM, sodium citrate 75 mM, glucose 135 mM). The pellet was suspended in 5 mL of ACD-A, centrifuged at 100 g for 5 minutes to remove contaminating red blood cells, and the supernatant collected. ^111 Indium oxyquinoline (70 μL of 1 mCi/mL, Amersham Mediphysics, Arlington Heights, Ill.) was added with gentle shaking for 30 minutes at room temperature. […] One minute following platelet infusion (immediately prior to reperfusion), 0.5 mL of blood was taken from the left atrium to determine blood radioactivity, to ascertain blood platelet concentrations to normalize for variations in blood loss during surgery. Five minutes following reperfusion, the native right pulmonary artery was ligated, the graft was removed 10 minutes thereafter, and ^111 Indium-platelet deposition quantified by gamma counting. Platelet accumulation was expressed as the ratio of graft radioactivity to blood radioactivity normalized to dry weight.

SMILES	nitric oxide synthase activity after transplantation (nitric oxide synthase)	graft blood flow [1]	concentration of maximal benefit (heart; 8-Br-cGMP dose-response, 12 h in LR) [mM]	effect on graft preservation (words) (heart; 12 h in LR)	effect on graft preservation (words) (heart; 12 h in LR, listed as 8-bromo-cGMP)	interaction with allosteric binding sites [2]	graft oxidant stress, TBARs [3]	graft platelet accumulation [4]	graft survival (heart; 24-28 h in UW) [%]	graft survival (heart; 12 h in LR) [%]	concentration of maximal effect (heart; NTG dose-response, 12 h in LR) [mg/mL]
Nc1nc2c(nc(Br)n2[C@@H]2O[C@@H]3COP(=O)(O)O[C@H]3[C@H]2O)c(=O)[nH]1 [8-Br-cGMP, 8-bromoguanosine-3'5' cyclic monophosphate]	similar	enhanced blood flow	0.5	enhanced cardiac preservation in a dose-dependent manner	enhanced graft survival	does not interact with the allosteric binding sites	–	–	–	–	–
O=[N+]([O-])OCC(CO[N+](=O)[O-])O[N+](=O)[O-] [NTG, nitroglycerin]	similar	enhanced blood flow	–	–	–	–	reduced graft oxidant stress	significant decline in both neutrophil and platelet accumulation	100	92	0.1
